Reference: paper PMC12108418, “Broad-Spectrum Gramicidin S Derivatives with Potent Activity Against Multidrug-Resistant Gram-Negative ESKAPE Pathogens” (Antibiotics, 2025)
≈ marks a conversion by molar mass, not a printed value. Read-outs that look alike come from different tables or passages of the source. Square brackets hold non-standard residues; d marks the D form. Peptide text beside a SMILES is read from it. Tle = CC(C)(C)[C@H](N)C(=O)O; Orn = NCCC[C@H](N)C(=O)O; Abu = CC[C@H](N)C(=O)O

Tests used:
[1] = system: Acinetobacter baumannii (ATCC 19606); type: cell-based
Procedure: (§1) The antibacterial efficacy of peptides was assessed using the broth microdilution method in accordance with Clinical and Laboratory Standards Institute (CLSI) guidelines (M07-A10, 2015 [33]). The minimum inhibitory concentrations (MICs) were determined against Escherichia coli (ATCC 25922), Klebsiella pneumoniae (ATCC 33495), Pseudomonas aeruginosa (ATCC 27853), Acinetobacter baumannii (ATCC 19606), and Staphylococcus aureus (ATCC 29213 and ATCC USA300). Bacterial suspensions were standardised to 5 × 10^4 colony-forming units (CFUs)/well in cation-adjusted Mueller–Hinton broth (CAMHB). Peptides were dissolved in 25% DMSO and serially diluted two-fold across 96-well plates, reaching final concentrations ranging from 256 to 0.125 µg/mL. The wells were inoculated, ensuring a final volume of 100 µL per well, with a DMSO concentration of 1% (v/v) to minimise solvent interference. […] Vancomycin was used as the positive control for S. aureus. Polymyxin B served as the positive control for Gram-negative bacteria. CAMHB with 1% (v/v) DMSO (without peptides) was used as the negative control. All experiments were performed in triplicate (n = 3). Bacterial isolates were stored in tryptone soy broth with 30% glycerol at −80 °C for long-term preservation.

[2] = system: Escherichia coli (ATCC 25922); type: cell-based
Procedure: as §1

[3] = system: Klebsiella pneumoniae (ATCC 33495); type: cell-based
Procedure: as §1

[4] = system: Pseudomonas aeruginosa (ATCC 27853); type: cell-based
Procedure: as §1

human red blood cells = assay: Haemolysis assay; type: cell-based; conditions: 1% human RBC suspension in HEPES-buffered saline pH 7.4, pooled from three donors, 0.125 to 256 μg/mL, 1 h, 37 °C, absorbance 540 and 410 nm, triplicate (n = 3)
Procedure: To evaluate haemolytic activity, fresh human blood was collected from three unrelated healthy volunteers to ensure donor variability. Red blood cells (RBCs) were separated by centrifugation at 3000 rpm for 5 min at 4 °C, followed by washing in HEPES-buffered saline (HBS; 150 mM NaCl, 5 mM HEPES-NaOH, pH 7.4). The samples were pooled, mixed, and all experiments were performed in triplicate to enhance reproducibility. Blood samples were used within 48 h of collection to preserve erythrocyte integrity. A 1% RBC suspension in HBS (200 μL) was distributed into 96-well plates, and peptide solutions (100 μL) were added to reach final concentrations ranging from 0.125 to 256 μg/mL. After a 1 h incubation at 37 °C, the plates were centrifuged (3000 rpm, 5 min, 4 °C), and 80 μL of each supernatant was transferred to a fresh microplate. Absorbance readings were taken at 540 nm and 410 nm to assess protein content and haemoglobin release, respectively. HBS served as a negative control and 1% Triton X-100 as a positive control (n = 3).

[5] = Analytical RP-HPLC retention time as measure of hydrophobicity; type: physicochemical; conditions: measure of global hydrophobicity, Phenomenex Kinetex 2.6 µm C18 (150 × 4.6 mm), 0.7 mL/min, ACN/TFA (100:0.0008) and water/TFA (100:0.001)
Procedure: Peptide purification was carried out via preparative RP-HPLC on an Agilent 1260 Infinity II system (Santa Clara, CA, USA) equipped with a 21.2 × 150 mm Agilent ZORBAX Eclipse Plus C18 column, operating at a flow rate of 25 mL/min. The mobile phase consisted of acetonitrile containing 0.0008% trifluoroacetic acid (v/v) as the organic phase and water with 0.001% TFA as the aqueous phase. […] Analytical HPLC analysis was performed on a Hewlett-Packard Series 1100 instrument using a Phenomenex (Torrance, CA, USA) Kinetex C18 column (150 mm × 4.6 mm, 2.6 µm particle size), under identical solvent conditions, to confirm purity.
HRMS of peptide 1. […] HRMS of peptide 2. […] HRMS of peptide 3. […] HRMS of peptide 4. […] HRMS of peptide 5. […] HRMS of peptide 6. […] HRMS of peptide 7. […] HRMS of peptide 8. […] HRMS of peptide 9. […] HRMS of peptide 10. […] HRMS of peptide 11. […] HRMS of peptide 12. […] HRMS of peptide 13. […] HRMS of peptide 14. […] HRMS of peptide 15. […] HRMS of peptide 16. […] HRMS of peptide 17. […] HRMS of peptide 18. […] HRMS of peptide 19.

[6] = broth microdilution in CAMHB, 5 × 10^4 CFU/well, 1% DMSO, 37 °C, 16–20 h, 256 to 0.125 µg/mL, triplicate (n = 3)

Structure (SMILES)	MIC A. baumannii ATCC 19606 [1, 6] [µg/mL]	MIC E. coli ATCC 25922 [2, 6] [µg/mL]	MIC K. pneumonia ATCC 33495 [3, 6] [µg/mL]	MIC P. aeruginosa ATCC 27853 [4, 6] [µg/mL]	HC50 (50% haemolytic concentration) (human red blood cells) [µg/mL]	MIC A. baumannii ATCC 19606 ([1]; ATCC 19606) [µg/mL]	MIC E. coli ATCC 25922 ([2]; ATCC 25922) [µg/mL]	MIC K. pneumonia ATCC 33495 ([3]; ATCC 33495) [µg/mL]	RP-HPLC retention time tR [5] [min]	MIC P. aeruginosa ATCC 27853 ([4]; ATCC 27853) [µg/mL]
CC(C)C[C@@H]1NC(=O)[C@H](CCCN)NC(=O)[C@H](C(C)(C)C)NC(=O)[C@@H]2CCCN2C(=O)[C@@H](Cc2ccccc2)NC(=O)[C@H](CC(C)C)NC(=O)[C@H](CCCN)NC(=O)[C@H](C(C)(C)C)NC(=O)[C@@H]2CCCN2C(=O)[C@@H](Cc2ccccc2)NC1=O [Peptide 13] (cyclo(L[dF]P[Tle][Orn]L[dF]P[Tle][Orn]))	32 (≈ 27.4 µM)	32 (≈ 27.4 µM)	256 (≈ 219 µM)	128 (≈ 109 µM)	6.26 ± 0.35					
CC[C@@H]1NC(=O)[C@@H]2CCCN2C(=O)[C@@H](CCCNC(=N)N)NC(=O)[C@H](CC(C)C)NC(=O)[C@H](CCCN)NC(=O)[C@H](C(C)C)NC(=O)[C@@H]2CCCN2C(=O)[C@@H](Cc2ccccc2)NC(=O)[C@H](CC(C)C)NC(=O)[C@H](CCCNC(=N)N)NC1=O [Peptide 17] (cyclo([Abu]RL[dF]PV[Orn]L[dR]P))				64 (≈ 54.3 µM)		16 (≈ 13.6 µM)	32 (≈ 27.2 µM)	32 (≈ 27.2 µM)	16.32	
CC[C@@H]1NC(=O)[C@@H]2CCCN2C(=O)[C@@H](CCCNC(=N)N)NC(=O)[C@H](CC(C)C)NC(=O)[C@H](CCCN)NC(=O)[C@H](CC)NC(=O)[C@@H]2CCCN2C(=O)[C@@H](Cc2ccccc2)NC(=O)[C@H](CC(C)C)NC(=O)[C@H](CCCNC(=N)N)NC1=O [Peptide 18] (cyclo([Abu][Orn]L[dR]P[Abu]RL[dF]P))						32 (≈ 27.5 µM)	64 (≈ 55 µM)	64 (≈ 55 µM)	16.03	128 (≈ 110 µM)
CC(C)C[C@@H]1NC(=O)[C@H](CCCN)NC(=O)[C@H](C(C)(C)C)NC(=O)[C@@H]2CCCN2C(=O)[C@@H](Cc2ccccc2)NC(=O)[C@H](CC(C)C)NC(=O)[C@H](CCCN)NC(=O)[C@H](C(C)(C)C)NC(=O)[C@@H]2CCCN2C(=O)[C@@H](CCCNC(=N)N)NC1=O [Peptide 19] (cyclo(L[dF]P[Tle][Orn]L[dR]P[Tle][Orn]))						4 (≈ 3.39 µM)	16 (≈ 13.6 µM)	32 (≈ 27.2 µM)	17.15	16 (≈ 13.6 µM)
